# In US10336762B2 (priority 2017, dated 2019):
# pEC50, pIC50: −log10 of the molar value. Read-outs that look alike come from different tables or passages of the source.
# Assays:
# TNFα = assay: cells; format: cell-based, human; details: LPS-stimulated human monocytes, read-out: EC50 TNF
# IRAK4 enzyme = IRAK4 enzyme (Homo sapiens (Human), UniProt Q9NWZ3); assay: biochemical; format: biochemical; details: IRAK4 enzyme, 500 μM ATP
# [1] = Homo sapiens, Monocyte, TNFα content
# [2] = Homo sapiens, Monocyte, TNFα by TR-FRET
# Sequence of IRAK4 enzyme (Q9NWZ3 whole entry): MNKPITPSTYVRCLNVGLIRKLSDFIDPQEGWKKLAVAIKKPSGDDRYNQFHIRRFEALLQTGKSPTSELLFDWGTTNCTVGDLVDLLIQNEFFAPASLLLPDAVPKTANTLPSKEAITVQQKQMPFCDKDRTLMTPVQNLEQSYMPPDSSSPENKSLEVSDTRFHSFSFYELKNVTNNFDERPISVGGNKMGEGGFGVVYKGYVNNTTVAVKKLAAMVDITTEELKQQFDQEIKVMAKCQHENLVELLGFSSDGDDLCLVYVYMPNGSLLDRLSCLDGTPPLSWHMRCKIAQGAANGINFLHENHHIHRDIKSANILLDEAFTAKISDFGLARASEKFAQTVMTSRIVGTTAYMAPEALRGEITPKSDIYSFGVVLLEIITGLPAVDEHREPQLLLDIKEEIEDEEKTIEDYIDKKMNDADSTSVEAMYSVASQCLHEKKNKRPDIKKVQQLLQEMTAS
SMILES,pEC50 (TNFα; [1]),pIC50 (IRAK4 enzyme; TR-FRET),pEC50 (TNFα; TNFα by TR-FRET),pEC50 (TNFα; [2]),pIC50 (IRAK4 enzyme; TR-FRET (HTRF))
"COC(=O)NC12CCC(Nc3cc(-c4ccc5cc(C#N)cnn45)ncc3C(=O)NC[C@@H](F)C(C)(C)O)(CC1)CC2 [Example 311, (R)-methyl (4-((2-(3-cyano-pyrrolo[1,2-b]pyridazin-7-yl)-5-((2-fluoro-3-hydroxy-3-methylbutyl)carbamoyl)pyridin-4-yl)amino)bicyclo[2.2.2]octan-1-yl)carbamate]",7.82,> 9.00,–,–,–
"COC(=O)N1CCC12CC(Nc1cc(-c3ccc4cc(C#N)cnn34)ncc1C(=O)NC[C@@H](F)C(C)(C)O)C2 (stereo partly drawn) [Example 912, (4R,6s)-methyl 6-((2-(3-cyanopyrrolo[1,2-b]pyridazin-7-yl)-5-(((R)-2-fluoro-3-hydroxy-3-methylbutyl)carbamoyl)pyridin-4-yl)amino)-1-azaspiro[3.3]heptane-1-carboxylate]",–,8.22,6.75,–,–
"CC(C)(O)C(=O)CNC(=O)c1cnc(-c2ccc3cc(C#N)cnn23)cc1NC12CCC(O)(CC1)CC2 [Example 810, 6-(3-cyanopyrrolo[1,2-b]pyridazin-7-yl)-N-(3-hydroxy-3-methyl-2-oxobutyl)-4-((4-hydroxy-bicyclo[2.2.2]octan-1-yl)amino)nicotinamide]",–,> 9.00,–,8.05,–
"CC(C)(O)[C@H](F)CNC(=O)c1cnc(-c2ccc3cc(C#N)cnn23)cc1Nc1ccc(-n2nccn2)nc1 [Example 778, (R)-4-((6-(2H-1,2,3-triazol-2-yl)pyridin-3-yl)amino)-6-(3-cyanopyrrolo[1,2-b]pyridazin-7-yl)-N-(2-fluoro-3-hydroxy-3-methyl-butyl)nicotinamide]",7.29,–,–,–,> 9.00
"CC(C)(O)[C@H](F)CNC(=O)c1cnc(-c2ccc3cc(C#N)cnn23)cc1NCC1CC1(F)F (stereo partly drawn) [Example 137, 6-(3-cyanopyrrolo[1,2-b]pyridazin-7-yl)-4-(((2,2-difluorocyclopropyl)methyl)amino)-N-((R)-2-fluoro-3-hydroxy-3-methylbutyl)nicotinamide]",6.85,8.70,–,–,–
"CC(C)(O)[C@H](F)CNC(=O)c1cnc(-c2ccc3cc(C#N)cnn23)cc1NC12CC(C(N)=O)(C1)C2 [Example 373, (R)-4-((3-carbamoylbicyclo[1.1.1]pentan-1-yl)amino)-6-(3-cyanopyrrolo[1,2-b]pyridazin-7-yl)-N-(2-fluoro-3-hydroxy-3-methylbutyl)nicotinamide]",6.85,> 9.00,–,–,–
"COC(=O)N1CC(n2cc(Nc3cc(-c4ccc5cc(C#N)cnn45)ncc3C(=O)NC[C@@H](F)C(C)(C)O)cn2)C1 [Example 231, (R)-methyl 3-(4-((2-(3-cyanopyrrolo[1,2-b]pyridazin-7-yl)-5-((2-fluoro-3-hydroxy-3-methylbutyl)carbamoyl)pyridin-4-yl)amino)-1H-pyrazol-1-yl)azetidine-1-carboxylate]",7.21,> 9.00,–,–,–
"CC1(C)C(=O)Nc2ccc(Nc3cc(-c4ccc5cc(C#N)cnn45)ncc3C(=O)NC[C@@H](F)C(C)(C)O)cc21 [Example 653, (R)-6-(3-cyanopyrrolo[1,2-b]pyridazin-7-yl)-4-((3,3-dimethyl-2-oxoindolin-5-yl)amino)-N-(2-fluoro-3-hydroxy-3-methylbutyl) nicotinamide]",6.70,–,–,–,8.52
"CC(C)(O)[C@H](F)CNC(=O)c1cnc(-c2ccc3cc(C#N)cnn23)cc1Nc1nnc(Cc2ccccc2)o1 [Example 336, (R)-4-((5-benzyl-1,3,4-oxadiazol-2-yl)amino)-6-(3-cyanopyrrolo[1,2-b]pyridazin-7-yl)-N-(2-fluoro-3-hydroxy-3-methyl-butyl)nicotinamide]",6.28,8.30,–,–,–
"CC(C)(O)[C@H](F)CNC(=O)c1cnc(-c2ccc3cc(C#N)cnn23)cc1Nc1ccc(-c2ncc[nH]2)cc1 [Example 230, (R)-4-((4-(1H-imidazol-2-yl)phenyl)amino)-6-(3-cyanopyrrolo[1,2-b]pyridazin-7-yl)-N-(2-fluoro-3-hydroxy-3-methylbutyl)nicotinamide]",7.24,> 9.00,–,–,–
"N#Cc1cnn2c(-c3cc(NC45CCC(O)(CC4)CC5)c(C(=O)N[C@H]4CCCNC4=O)cn3)ccc2c1 [Example 957, (S)-6-(3-cyanopyrrolo[1,2-b]pyridazin-7-yl)-4-((4-hydroxybicyclo[2.2.2]octan-1-yl)amino)-N-(2-oxo-piperidin-3-yl)nicotinamide]",–,> 9.00,–,6.76,–
"NC(=O)c1cnn2c(-c3cc(NC45CCC(O)(CC4)CC5)c(C(=O)NCC(F)(F)C(=O)N4CC(F)(F)C4)cn3)ccc2c1 [Example 963, 7-(5-((3-(3,3-difluoro-azetidin-1-yl)-2,2-difluoro-3-oxopropyl)carbamoyl)-4-((4-hydroxybicyclo[2.2.2]octan-1-yl)amino)pyridin-2-yl)pyrrolo[1,2-b]pyridazine-3-carboxamide]",–,6.40,–,< 5.00,–
"N#Cc1cnn2c(-c3cc(NC45CCC(O)(CC4)CC5)c(C(=O)NCc4ncccn4)cn3)ccc2c1 [Example 933, 6-(3-cyanopyrrolo[1,2-b]pyridazin-7-yl)-4-((4-hydroxybicyclo[2.2.2]octan-1-yl)amino)-N-(pyrimidin-2-ylmethyl)nicotinamide]",–,8.40,–,6.57,–
"CNC(=O)[C@H]1CC[C@H](NC(=O)c2cnc(-c3ccc4cc(C#N)cnn34)cc2NC23CC(NC(C)=O)(C2)C3)CC1 [Example 479, 4-((3-acetamidobicyclo[1.1.1]pentan-1-yl)amino)-6-(3-cyanopyrrolo[1,2-b]pyridazin-7-yl)-N-((1r,4r)-4-(methylcarbamoyl)cyclohexyl)nicotinamide]",7.15,–,–,–,> 9.00
"Cn1cc(Nc2cc(-c3ccc4cc(C#N)cnn34)ncc2C(=O)NC[C@@H](F)C(C)(C)O)nn1 [Example 58, (R)-6-(3-cyanopyrrolo[1,2-b]pyridazin-7-yl)-N-(2-fluoro-3-hydroxy-3-methylbutyl)-4-((1-methyl-1H-1,2,3-triazol-4-yl)amino)nicotinamide]",7.04,> 9.00,–,–,–
"COC(C)(C)[C@H](F)CNC(=O)c1cnc(-c2ccc3cc(C#N)cnn23)cc1NC12CCC(O)(CC1)CC2 [Example 354, (R)-6-(3-cyanopyrrolo[1,2-b]pyridazin-7-yl)-N-(2-fluoro-3-methoxy-3-methylbutyl)-4-((4-hydroxybicyclo[2.2.2]octan-1-yl)amino) nicotinamide]",7.72,> 9.00,–,–,–
"CC(C)Nc1cc(-c2ccc3cc(C#N)cnn23)ncc1C(=O)N[C@H]1CC[C@H](O)C1 [Example 189, 6-(3-cyanopyrrolo[1,2-b]pyridazin-7-yl)-N-((1S,3S)-3-hydroxycyclopentyl)-4-(isopropylamino) nicotinamide]",6.87,8.22,–,–,–
"CC(C)(O)[C@H](F)CNC(=O)c1cnc(-c2ccc3cc(C#N)cnn23)cc1N[C@H]1C[C@@H]2CC[C@H]1C2 [Example 101, 4-(((1S,2S,4R)-bicyclo[2.2.1]heptan-2-yl)amino)-6-(3-cyanopyrrolo[1,2-b]pyridazin-7-yl)-N-((R)-2-fluoro-3-hydroxy-3-methylbutyl) nicotinamide]",7.09,> 9.00,–,–,–
"CNC(=O)c1cnc(-c2ccc3cc(C#N)cnn23)cc1NC1CCC(NC(=O)C(F)(F)F)CC1 (centres unmarked) [Example 275, 6-(3-cyanopyrrolo[1,2-b]pyridazin-7-yl)-N-methyl-4-(((1r,4r)-4-(2,2,2-trifluoroacetamido)cyclohexyl)amino) nicotinamide]",6.81,8.52,–,–,–
"CCC(=O)N[C@H]1CC[C@H](Nc2cc(-c3ccc4cc(C#N)cnn34)ncc2C(=O)NC[C@@H](F)C(C)(C)O)CC1 [Example 299, 6-(3-cyanopyrrolo[1,2-b]pyridazin-7-yl)-N-((R)-2-fluoro-3-hydroxy-3-methyl-butyl)-4-(((1r,4R)-4-propionamidocyclohexyl)amino)nicotinamide]",6.89,9.00,–,–,–
"CC(=O)NC12CC(Nc3cc(-c4ccc5cc(C#N)cnn45)ncc3C(=O)NC3CCC(C(=O)N4CCOCC4)CC3)(C1)C2 (centres unmarked) [Example 477, 4-((3-acetamido-bicyclo[1.1.1]pentan-1-yl)amino)-6-(3-cyano-pyrrolo[1,2-b]pyridazin-7-yl)-N-((1r,4r)-4-(morpholine-4-carbonyl)cyclohexyl) nicotinamide]",7.01,–,–,–,9.00
"COC(=O)N1CCC(Nc2cc(-c3ccc4cc(C#N)cnn34)ncc2C(=O)NC[C@@H](F)C(C)(C)O)CC1 [Example 242, (R)-methyl 4-((2-(3-cyano-pyrrolo[1,2-b]pyridazin-7-yl)-5-((2-fluoro-3-hydroxy-3-methylbutyl)carbamoyl)pyridin-4-yl)amino)piperidine-1-carboxylate]",6.72,8.70,–,–,–
"CC(C)(O)[C@H](F)CNC(=O)c1cnc(-c2ccc3cc(C#N)cnn23)cc1Nc1cnc(C2CC2)nc1 [Example 666, (R)-6-(3-cyanopyrrolo[1,2-b]pyridazin-7-yl)-4-((2-cyclopropylpyrimidin-5-yl)amino)-N-(2-fluoro-3-hydroxy-3-methylbutyl) nicotinamide]",7.52,–,–,–,> 9.00
"N#Cc1cnn2c(-c3cc(NC45CCC(O)(CC4)CC5)c(C(=O)N[C@@H]4CCNC4=O)cn3)ccc2c1 [Example 959, (R)-6-(3-cyanopyrrolo[1,2-b]pyridazin-7-yl)-4-((4-hydroxybicyclo[2.2.2]octan-1-yl)amino)-N-(2-oxo-pyrrolidin-3-yl)nicotinamide]",–,> 9.00,–,6.69,–
"CC(C)(O)[C@H](F)CNC(=O)c1cnc(-c2ccc3cc(C#N)cnn23)cc1Nc1cccc(F)c1 [Example 384, (R)-6-(3-cyanopyrrolo[1,2-b]pyridazin-7-yl)-N-(2-fluoro-3-hydroxy-3-methylbutyl)-4-((3-fluorophenyl)amino) nicotinamide]",6.89,9.00,–,–,–
